# “Also recorded” adds a separate entry of the source.
# Legend:
# progesterone receptor = molecular target: T1, progesterone receptor (Homo sapiens, UniProt P06401); test: Progesterone receptor activation; conditions: directly or indirectly via metabolic conversion
# T1 sequence (P06401 1-933): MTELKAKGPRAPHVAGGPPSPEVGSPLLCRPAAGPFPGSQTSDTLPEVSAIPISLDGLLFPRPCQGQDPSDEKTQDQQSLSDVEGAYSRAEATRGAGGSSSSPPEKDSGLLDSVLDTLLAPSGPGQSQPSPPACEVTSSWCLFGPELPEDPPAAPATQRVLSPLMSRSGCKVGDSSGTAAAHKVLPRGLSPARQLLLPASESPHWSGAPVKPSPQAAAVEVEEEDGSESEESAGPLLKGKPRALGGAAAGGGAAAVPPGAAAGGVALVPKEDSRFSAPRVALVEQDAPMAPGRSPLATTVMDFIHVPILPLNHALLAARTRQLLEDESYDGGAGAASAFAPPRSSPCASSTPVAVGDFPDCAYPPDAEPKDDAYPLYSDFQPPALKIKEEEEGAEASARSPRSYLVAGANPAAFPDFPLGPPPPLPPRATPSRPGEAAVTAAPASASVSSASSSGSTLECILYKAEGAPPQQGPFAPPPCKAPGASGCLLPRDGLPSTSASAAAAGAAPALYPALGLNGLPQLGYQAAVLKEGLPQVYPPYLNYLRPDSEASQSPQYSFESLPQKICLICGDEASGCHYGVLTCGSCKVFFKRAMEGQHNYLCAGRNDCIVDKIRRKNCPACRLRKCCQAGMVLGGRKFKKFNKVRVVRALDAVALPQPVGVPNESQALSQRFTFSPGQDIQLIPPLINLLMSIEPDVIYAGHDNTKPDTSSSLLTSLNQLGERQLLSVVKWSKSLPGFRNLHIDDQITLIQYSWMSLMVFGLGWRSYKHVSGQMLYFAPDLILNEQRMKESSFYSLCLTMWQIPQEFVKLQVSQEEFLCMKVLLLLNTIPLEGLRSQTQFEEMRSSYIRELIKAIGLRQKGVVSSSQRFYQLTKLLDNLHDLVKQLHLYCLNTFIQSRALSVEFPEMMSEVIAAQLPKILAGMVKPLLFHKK
# Description: Ganaxolone (3α-hydroxy-3β-methyl-5α-pregnan-20-one) is a 3β-methylated synthetic analogue of the endogenous neurosteroid allopregnanolone with similar biological activity (Carter et al., (1997), The Journal of Pharmacology and Experimental Therapeutics, 280:1284-1295), but it is designed to not activate nuclear (classical) progesterone receptors. Also, in contrast to allopregnanolone, ganaxolone is orally bioavailable.
# [1] = Phase 1 IV ganaxolone pharmacokinetics in healthy subjects; type: in vivo, human
# Description: A Phase I clinical trial evaluating IV ganaxolone formulation was performed. The clinical trial was designed to investigate the safety, pharmacokinetics, and pharmacodynamics of an intravenous bolus of ganaxolone and continuous intravenous infusion of ganaxolone in 30 healthy subjects. Subjects were administered either an intravenous bolus of ganaxolone in an amount of 10-20 mg for a period of 2 minutes to 1 hour, or an intravenous bolus of ganaxolone in an amount of 6 mg for a period of 5 minutes with a continuous intravenous infusion in an amount of 20 mg/hr for a period of 4 hours.
# There was little or no delay between the appearance of drug in plasma and a change in the BIS score.
# subjects with SE = test: Phase 2 Study 1042-SE-2001 open-label group, seizure control by EEG; type: in vivo, human
# Description: Example 2 is an ongoing, double-blind, randomized, placebo-controlled Phase 2 study designed to evaluate the safety, tolerability, and efficacy of adjunctive IV GNX in subjects with SE who have failed initial treatment with benzodiazepines and at least one AED. The study consists of a small open-label group to optimize the infusion parameters and provide a preliminary assessment of safety, efficacy, and tolerability of GNX administration, followed by a double-blind group who will be randomized to receive GNX or placebo in a 1:1 ratio. In both the open-label and double-blind groups, the study drug treatment is adjunctive therapy to standard of care, and subjects will receive a study drug bolus dose with a concurrent continuous infusion treatment with the goal of administering a therapeutic dose as quickly as possible to stop the seizures and prevent permanent neurological damage. Specifically, study drug will be added to the standard of care at the time that the first 2nd-line IV AED has failed and the second 2nd-line IV AED is medically indicated during the treatment of SE. Study drug must be administered with the second-line IV AED as close to the dose initiation of the second 2nd-line IV AED as possible, but before the initiation of the third-line IV anesthetic for burst suppression.
# Ganaxolone for this study is a proprietary IV formulation solubilized by Captisol® (betadex sulfobutyl ether sodium). The maximum level of Captisol® will not exceed 50 g/per day. Ganaxolone for IV administration will be provided to the site as individual glass vials containing 3 mg/mL of ganaxolone for the open-label group and 5 mg/mL of ganaxolone for the double-blind group. Placebo for double-blind group IV administration will be provided to the site as blinded matching vials containing 0.9% sodium chloride solution.
# Total adjunctive GNX therapy infusion treatment is planned to be 3 or 5 days (including an 18-hour taper). All subjects will have a 3-minute bolus dose with a continuous infusion at the rate from about 10 mg/hour to about 85 mg/hour or from about 18 mg/hr to 80 mg/hr, and an 18-hour taper. Once study drug administration is started it will be delivered for a full 2 or 4 days (48 or 96 hours) prior to tapering. At the end of second day administration, the decision to administer the study drug for an additional 2 days (i.e., for a total of 4 days) will be made. If in the investigator's medical judgment the subject will continue benefitting from study drug administration, ganaxolone will be administered to the additional 2 days.
# As of 22 Mar. 2019, 5 subjects were enrolled into the Study 1042-SE-2001 open-label group under the original protocol that limits daily Captisol exposure at 35 g/day. […] The initial EEG pattern post-infusion initiation was described by study physicians as a “light” burst suppression that was maintained for several hours in all subjects. […] It was observed that when GNX exposure was lowered (20 mg/hr for 2 hours and ending with 10 mg/hr for the remaining 18 hours on Day 1) in order not to exceed this limit, seizure control could not be maintained and seizure activity (but not SE) re-occurred as evidenced by EEG changes. […] Seizure activity relapsed when plasma concentrations of GNX decreased <500 ng/mL in 4 out of 5 subjects.
# [2] = cited from earlier work
smiles,measurement,setting,value
"CC(=O)[C@H]1CC[C@H]2[C@@H]3CC[C@H]4C[C@](C)(O)CC[C@]4(C)[C@H]3CC[C@]12C [Ganaxolone, 3α-hydroxy-3β-methyl-5α-pregnan-20-one]",activation of the progesterone receptor,progesterone receptor,does not activate the progesterone receptor directly or indirectly
same,ganaxolone levels in plasma,"[1]; all 30 healthy subjects, IV bolus or bolus plus infusion",quantifiable
same,dose relation of plasma concentrations,"[1]; healthy subjects, IV",generally proportional to the administered dose
same,duration seizure protection was maintained,"subjects with SE; 1 subject, amended protocol",48 h
same,time to RSE cessation after starting IV GNX infusion,"subjects with SE; 1 subject, amended protocol, Captisol 50 g/day, NCSE due to tumor",≤ 3 min
same,seizure relapse on weaning off GNX,"subjects with SE; 1 subject, amended protocol, listed as GNX",no seizure relapse; also recorded: without seizure relapse
same,EEG response after start of GNX,"subjects with SE; Subject 004-101, 30 mg bolus, 85 mg/hr",Almost immediately the EEG showed seizure suppression
same,time of seizure relapse post infusion start,"subjects with SE; Subject 004-101, at 20 mg/hr",approximately 5 hours
same,time at which additional intervention was required post-dose initiation,subjects with SE; Subject 004-102,approximately 42.5 hours
same,seizure activity on EEG,"subjects with SE; Subject 004-102, 60 minutes and 2 hours post-dose initiation",no seizure activity
same,time of return of concerning EEG pattern post-dose initiation,"subjects with SE; Subject 004-102, at 20 mg/hr",5 to 6 h
same,time to SE abort after bolus administration,subjects with SE; Subject 006-101,≤ 1 min
same,seizure activity on EEG,"subjects with SE; Subject 006-101, 60 minutes and 2 hours post-dose initiation",no seizure activity
same,time of seizure relapse post infusion start,"subjects with SE; Subject 006-101, at 20 mg/hr",approximately 6 hours
same,effect of bolus on SE,subjects with SE; Subject 006-102,SE aborted upon administration of the bolus
same,seizure activity on EEG,"subjects with SE; Subject 006-102, 60 minutes, 2 hours and 4 hours post-dose initiation",no seizure activity
same,time of seizure relapse post infusion start,"subjects with SE; Subject 006-102, at 20 mg/hr",approximately 6 hours
same,seizure return during treatment,"subjects with SE; Subject 015-101, focal convulsive SE",Seizures did not return during the treatment period
same,effect of initial bolus plus continuous infusion on seizures/SE (EEG),"subjects with SE; all 5 subjects, 30 mg bolus, 85 mg/hr 2 h then 40 mg/hr 2 h, listed as GNX",immediate cessation of seizures; also recorded: immediate cessation of SE
same,subjects with seizure activity relapse when plasma GNX decreased <500 ng/mL,"subjects with SE; original protocol, Captisol 35 g/day",4 out of 5
same,half-life,[2]; human plasma following oral administration,approximately 20 hours
same,Tmax,[2]; human,short

# Source: patent publication US12246026B2, “Ganaxolone for use in treatment of status epilepticus” (Marinus Pharmaceuticals, Inc., priority 2019, dated 2025)
